Measurements: patent publication US20100204140A1, “USE OF A PEPTIDE AS A THERAPEUTIC AGENT” (priority 2007, published 2010)

What was measured:
[1] = test system: HIV-1IIIB in CEM-SS cells; test: HIV-1 antiviral assay (CPE reduction, MTS); type: cell-based; conditions: peptide 10 micrograms per ml, 6 days post-infection
CEM-SS cells = test: Cytotoxicity in HIV-1 assay (MTS cell viability); conditions: peptide 10 micrograms per ml
HepG2-2.2.15 cells = test: Cytotoxicity in HBV assay (dye uptake cell viability); type: cell-based; conditions: test peptide 10 micrograms per ml, % cell control
[2] = test system: MRC-5 cells (human embryonal lung fibroblasts); conditions: 6 days
[3] = test system: HCMV strain AD169 in MRC-5 cells; test: HCMV plaque reduction assay; conditions: HCMV AD169 in MRC-5 cells; peptide 10 micrograms per ml; 7-10 days
[4] = test system: hepatitis B virus (HBV) ayw strain in HepG2-2.2.15 cells; test: HBV replication assay (secreted HBV DNA, TaqMan PCR); type: cell-based; conditions: test peptide 10 micrograms per ml; six days; HBV DNA in supernatant
Method: HepG2-2.2.15 is a stable cell line containing the hepatitis B virus (HBV) ayw strain genome (ATCC Cat. No. CRL-11997). Antiviral compounds blocking any late step of viral replication such as transcription, translation, pregenome encapsidation, reverse transcription, particle assembly and release can be identified and characterized using this cell line.
HepG2-2.2.15 cells were plated in 96-well microtiter plates. After 16-24 hours the confluent monolayer of HepG2-2.2.15 cells was washed and the medium was replaced with complete medium containing test peptide—10 micrograms per ml—in duplicate. […] Three days later the culture medium was replaced with fresh medium containing the peptide. Six days following the initial administration of the peptide, the cell culture supernatants was collected, treated with pronase and DNAse and then used in a real-time quantitative TaqMan PCR assay. The PCR-amplified HBV DNA was detected in real-time by monitoring increases in fluorescence signals that result from the exonucleolytic degradation of a quenched fluorescence probe molecule that hybridizes to the amplified HBV DNA. For each PCR amplification, a standard curve was simultaneously generated using dilutions of purified HBV DNA. Antiviral activity was calculated from the reduction in HBV DNA levels (% virus control). […]

in vitro [5] = conditions: human, MRC-5 cells (human embryonal lung fibroblasts)
[6] = test system: Human Peripheral Blood Mononuclear Cells (PBMC), T cell proliferation; test: T cell proliferation assay (PHA, 3H-thymidine); type: cell-based; conditions: test peptide 10 micrograms per ml, 3 days plus 12 hours 3H-thymidine
Pseudomonas aeruginosa = type: cell-based; conditions: 5 micrograms per ml
Streptococcus pneumoniae = type: cell-based; conditions: 5 micrograms per ml
[7] = test system: spleen cells of Ovalbumin-immunized Balb/c mice; test: Th1/Th2 cytokine profiling assay; type: cell-based, mouse; conditions: test peptide 10 micrograms per ml; Ovalbumin restimulation; 72 hours
[8] = test system: TNF alpha production in PBMC-derived macrophages; test: TNF alpha production assay (LPS-stimulated macrophages, ELISA); type: cell-based, human; conditions: test peptide 10 micrograms per ml, lipopolysaccharide 200 ng/ml, overnight
From the text: Not stimulated macrophages served as negative background control.

Human A549 cells = test: Propidium iodide cell cycle assay; type: cell-based; conditions: 24 hours, test peptide 10 micrograms per ml
[9] = Cytotoxicity in HBV assay (dye uptake cell viability); type: cell-based; conditions: human, HepG2-2.2.15 cells (stable line containing HBV ayw genome), test peptide 10 micrograms per ml, % cell control
MRSA = conditions: 5 micrograms per ml
[10] = test system: Primary Human endothelial cells (HUVEC); test: Endothelial cell migration assay; type: cell-based; conditions: test peptide 10 micrograms per ml, 22 hours
RAW 264.7 cells = test: Phagocytosis assay (Fluorescein-labeled Escherichia coli); type: cell-based, mouse; conditions: test peptide 10 micrograms per ml
in vitro [11] = conditions: human, CEM-SS cells
HUVEC = test: Endothelial tube formation assay; type: cell-based, human; conditions: test peptide 10 micrograms per ml, 20 hours
From the text: Positive control was vehicle only.

[12] = test system: Human Peripheral Blood Mononuclear Cells (PBMC), B cell proliferation; test: B cell proliferation assay (SAC plus IL-2, 3H-thymidine); type: cell-based; conditions: test peptide 10 micrograms per ml, 3 days plus 12 hours 3H-thymidine

For `Cc1cn([C@H]2C[C@H](N=[N+]=[N-])[C@@H](CO)O2)c(=O)[nH]c1=O` [AZT, reference compound], the “% CPE reduction in HIV-1 infected CEM-SS cells” value [1] was 99% and the “% Cell viability” value (CEM-SS cells) was 97%.
For `Nc1ccn([C@@H]2CS[C@H](CO)O2)c(=O)n1` [Compound 3TC, reference compound], the “% Cell viability” value (HepG2-2.2.15 cells) was 95.8%.
For `Nc1nc(O)c2ncn(COC(CO)CO)c2n1` [Ganciclovir], the “% Cell viability” value [2] was 100%.
In the case of `CSCC[C@H](NC(=O)[C@H](CC(C)C)NC(=O)CNC(=O)[C@@H](NC(=O)[C@H](Cc1ccccc1)NC(=O)[C@H](Cc1ccccc1)NC(=O)[C@H](CC(=O)O)NC(=O)[C@H](Cc1c[nH]cn1)NC(=O)[C@H](CCSC)NC(=O)[C@@H](N)CC(=O)O)C(C)C)C(N)=O` [Neurokinin B], the “% plaque reduction” value [3] is reported as 3.2%, the “% inhibition of HBV replication in HEP G2 cells” value [4] is reported as 78.5% and the viability at 144 h (in vitro [5]) is reported as 100%. The “% of PHA induced control” value [6] was 88.1%, the “% inhibition” value (Pseudomonas aeruginosa) was 0.0% and the “% CPE reduction in HIV-1 infected CEM-SS cells” value [1] was 0.0%. For the same compound, the “% inhibition” value (Streptococcus pneumoniae) was 0.0%, the “IFNγ spleen cells; TH1 response (% of control)” value [7] was 126.8 % of control and the “IL-2 spleen cells (% of control)” value [7] was 198.0 % of control. For the same compound, the “IL-4 spleen cells; TH2 response (% of control)” value [7] was 103.5 % of control, the “IL-5 spleen cells; TH2 response (% of control)” value [7] was 99.2 % of control and the “TNF-a spleen cells; TH1 response (% of control)” value [7] was 151.0 % of control. For the same compound, the “% of LPS induction” value [8] was 115.9%, the “Cell cycle analysis G0/G1” value (Human A549 cells) was 53.0 and the “Cell cycle analysis G2/M” value (Human A549 cells) was 14.8. For the same compound, the “Cell cycle analysis S” value (Human A549 cells) was 32.2, the viability at 144 h, 10 micrograms per ml [9] was 96.1% and the “% inhibition” value (MRSA) was 0.0%. For the same compound, the “% inhibition of migration” value [10] was −2%, the “% of control phagocytosis” value (RAW 264.7 cells) was 105.9% and the viability at 10 micrograms per ml (in vitro [11]) was 98.5%. The “% inhibition of tube formation” value (HUVEC) was 14% and the “% of SAC/IL2 induced control” value [12] was 115.1%.
